What all share (assay): UPLC glycosylation assay, […] nm
What all share (type): biochemical, Periploca forrestii
What all share (details): UDP-glucose as sugar donor; 10 mM PBS pH 8.0, 37 °C

The test system of test [1] is PfUGT74B4.
The test system of test [2] is PfUGT92A8.
Test [3] relates to PfUGT75C6.
Test [4] deals with PfUGT74E7.

The values that follow come from article PMC10940802 (Computational and Structural Biotechnology Journal, 2024).

Regarding `O=C1CC(O)(c2ccc(O)cc2)Oc2cc(O)cc(O)c21` (centres unmarked) [2-Hydroxynaringenin], the results for the Km in test [1] and in test [2] were 47.8 µM and 51.4 µM, respectively.

Take `COc1ccc(-c2cc(=O)c3c(O)cc(O)cc3o2)cc1` [Acacetin]: the Km – broadly, the substrate concentration at which the rate is half of its maximum – in test [1] amounted to 2.23 µM.

In the case of `O=c1cc(-c2ccc(O)cc2)oc2cc(O)cc(O)c12` [Apigenin], the Km in test [1] is 50.2 µM; in test [3], 29 µM; in test [2] it was 148 µM; in test [4], 5.97 µM.

For `O=c1cc(-c2ccc(O)c(O)c2)oc2cc(O)c([C@@H]3O[C@H](CO)[C@@H](O)[C@H](O)[C@H]3O)c(O)c12` [Isoorientin], the Km in test [1] was 65.2 µM; in test [2] it was 134 µM.

Take `O=c1cc(-c2ccc(O)cc2)oc2cc(O)c([C@@H]3O[C@H](CO)[C@@H](O)[C@H](O)[C@H]3O)c(O)c12` [Isovitexin]: the results for the Km in test [1] and in test [2] were 58.6 µM and 78.2 µM, respectively.

For `O=c1cc(-c2ccc(O)c(O)c2)oc2cc(O)cc(O)c12` [Luteolin], the Km in test [1] is 58.3 µM; in test [3], 28.4 µM; in test [2], 252 µM; in test [4] it was 7.75 µM.

Regarding `O=c1cc(-c2ccc(O)c(O)c2)oc2c([C@@H]3O[C@H](CO)[C@@H](O)[C@H](O)[C@H]3O)c(O)cc(O)c12` [Orientin], the Km in test [2] came to 218 µM.

In the case of `O=C(CCc1ccc(O)cc1)c1c(O)cc(O)cc1O` [Phloretin], the Km was 45.6 µM in test [1] and 34.7 µM in test [2].

Take `O=c1cc(-c2ccc(O)cc2)oc2c([C@@H]3O[C@H](CO)[C@@H](O)[C@H](O)[C@H]3O)c(O)cc(O)c12` [Vitexin]: the Km in test [1] was determined as 307 µM; in test [2] it was 94.2 µM.
